How the values were obtained:
Hep3B cell = assay: EPO Elisa Assay in Hep3B cells; assay type: cell-based; settings: Homo sapiens, 24 h at 37° C.
PHD2 = PHD2 (Homo sapiens (Human), UniProt Q9GZT9); assay: PHD2 Enzymatic Assay (AlphaScreen); assay type: biochemical; settings: 30 min preincubation at RT
Sequence of PHD2 (Q9GZT9 whole entry): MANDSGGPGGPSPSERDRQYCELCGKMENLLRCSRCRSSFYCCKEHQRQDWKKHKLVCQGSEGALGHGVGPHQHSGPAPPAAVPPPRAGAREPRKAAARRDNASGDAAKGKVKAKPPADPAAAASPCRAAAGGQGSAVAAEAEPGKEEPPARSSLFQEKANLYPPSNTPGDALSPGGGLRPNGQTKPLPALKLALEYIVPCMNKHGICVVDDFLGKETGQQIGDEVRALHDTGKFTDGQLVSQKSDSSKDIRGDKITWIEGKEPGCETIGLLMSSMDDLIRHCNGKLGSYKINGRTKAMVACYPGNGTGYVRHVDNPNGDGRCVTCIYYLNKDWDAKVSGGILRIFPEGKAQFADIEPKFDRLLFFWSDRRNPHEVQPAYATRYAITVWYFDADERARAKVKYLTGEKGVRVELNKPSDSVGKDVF

Row | SMILES | EC50 (Hep3B cell) [µM] | IC50 (PHD2) [µM]
1 | N#Cc1ccc(CNC(=O)c2ncc3nc(N4C[C@H]5C[C@@H]4CN5C4CC4)ccc3c2O)c(Cl)c1 [compound 69] | 2.5 to 5 | 0.005 to 0.02
2 | N#Cc1ccc(CNC(=O)c2ncc3nc(N4C[C@H]5C[C@@H]4CO5)ccc3c2O)cn1 [compound 43] | 2.5 to 5 | < 0.005
3 | CN1C[C@@H]2C[C@H]1CN2c1ccc2c(O)c(C(=O)NCc3ccc(C#N)cc3Cl)ncc2n1 [compound 58] | 10 to 100 | < 0.005
4 | CN1CCC2(CCN(c3ccc4c(O)c(C(=O)NCc5ccc(C#N)nc5)ncc4n3)CC2)C1=O [compound 67] | 5 to 7.5 | < 0.005
5 | N#Cc1ccc(CNC(=O)c2ncc3nc(N4C[C@@H]5C[C@H]4CO5)ccc3c2O)cn1 [compound 44] | 2.5 to 5 | < 0.005
6 | N#Cc1ccc(CNC(=O)c2ncc3nc(N4C[C@@H]5C[C@H]4CN5C4CC4)ccc3c2O)c(Cl)c1 [compound 68] | < 2.5 | 0.005 to 0.02
7 | N#Cc1ccc(CNC(=O)c2ncc3nc(N4C[C@@H]5C[C@H]4CN5C4CC4)ccc3c2O)cn1 [compound 80] | < 2.5 | < 0.005
8 | N#Cc1ccc(CNC(=O)c2ncc3nc(N4CCC5(COC5)C4)ccc3c2O)cn1 [compound 25] | < 2.5 | < 0.005
9 | N#Cc1ccc(CNC(=O)c2ncc3nc(N4CCC5(COC5)C4)ccc3c2O)c(Cl)c1 [compound 8] | 2.5 to 5 | 0.005 to 0.02
10 | CC(C)(C)OC(=O)N1C[C@@H]2C[C@H]1CN2c1ccc2c(O)c(C(=O)NCc3ccc(C#N)nc3)ncc2n1 [compound 116] | 10 to 100 | < 0.005
11 | N#Cc1ccc(CNC(=O)c2ncc3nc(N4CC5CC4CO5)ccc3c2O)cn1 (centres unmarked) [compound 30] | 2.5 to 5 | 
12 | CC(C)(C)OC(=O)N1CCOC2(C1)CN(c1ccc3c(O)c(C(=O)NCc4ccc(C#N)nc4)ncc3n1)C2 [compound 118] | 2.5 to 5 | < 0.005
13 | CC(C)(C)OC(=O)N1C[C@@H]2CN(c3ccc4c(O)c(C(=O)NCc5ccc(C#N)nc5)ncc4n3)C[C@@H]2C1 [compound 117] | 2.5 to 5 | < 0.005
14 | CC(C)(C)OC(=O)N1CC2(C1)CN(c1ccc3c(O)c(C(=O)NCc4ccc(C#N)nc4)ncc3n1)C2 [compound 91] | < 2.5 | < 0.005
15 | CC(C)(C)OC(=O)N[C@@H]1CN(c2ccc3c(O)c(C(=O)NCc4ccc(C#N)nc4)ncc3n2)CC12CC2 [compound 145] | 10 to 100 | < 0.005

From patent US11780854B2, “Prolyl hydroxylase domain-containing protein (PHD) inhibitors and uses thereof” (Insilico Medicine IP Limited, priority 2021, dated 2023)
